According to patent US20240287044A1, “SALT OF SELECTIVE FGFR4 INHIBITOR, AND PREPARATION METHOD THEREFOR AND APPLICATION THEREOF” (ZHEJIANG HISUN PHARMACEUTICAL CO., LTD., priority 2021, published 2024):
Where “and” joins values, the source holds several entries; their conditions need not be identical. Identical values can stand only once. Counter-ions that a name gives are not always drawn.

How the values were obtained:
[1] = Pharmacokinetic study on different salt forms (SD rats); assay type: in vivo; details: 20 mg·kg^−1 single gavage, fasted, 0.5% CMC-Na, plasma
Description: After vortex oscillation, ultrasonication was carried out. If necessary, shearing and emulsification or grinding could be carried out until well mixed, to obtain an administration formulation with a concentration of 2 mg· mL^−1.
(§1) Experimental animals were kept in animal rooms, which were well ventilated and equipped with air conditioning, and the temperature was maintained at 20-25° C., humidity at 40%-70%, and light and dark lighting for 12 hours each, and the experimental animals were allowed to eat and drink freely. After normal feeding for about 5 days, rats with good physical condition could be selected for this experiment after examination by a veterinary. Each rat was marked with a tail number.
(§2) The detailed administration regimen of the animal experiment is seen in Table 2. On the day before the experiment, all SD rats were fasted overnight (equal to or more than 12 hours). On the day of the experiment, after weighing, the theoretical administration volume for each rat was calculated according to the following formula. The administration formulation should be prepared on the day of the experiment, and the interval between preparation and administration should not exceed 2 hours. The actual administration amount of each rat and the collection time of the plasma sample should be recorded in detail in the corresponding table. SD rats were allowed to restore eating 4 hours after administration, and were allowed to drink water freely during the experiment.
Before and 0.25, 0.5, 1, 2, 4, 8, 12 and 24 hours after administration, 0.15 mL blood was collected from jugular vein and placed into anticoagulant tubes containing EDTA-K2.
All whole blood samples were subjected to centrifugation for 10 minutes (5500 rpm), and then the plasma was separated and stored in a refrigerator at −30° C. to −10° C.
The corresponding pharmacokinetic parameters were calculated using the […] of Pharsight Phoenix 7.0, and the results are shown in Table 3 below.

[2] = tested on: Hep3B human liver carcinoma subcutaneous transplanted tumor; test: Subcutaneous transplantation model of Hep3B human liver carcinoma; assay type: in vivo, BALB/c nude mice; details: for anti-tumor activity (in words): Hep3B model, 50 mg/kg twice a day gavage 10 days
Description: Preparation of administration formulation for gavage administration: sorafenib, free-base compounds as represented by formula (I) and its maleate salts, phosphate salts, hydrochloride salts, mesylate salts, and ethanesulfonate salts were accurately weighed respectively, and an appropriate volume of normal saline was added, and then vortex oscillation was performed until mixed well, and the administration formulation was prepared just before use.
BALB/c nude mice, female, purchased from Jiangsu Jicui Pharmacom Biotechnology Co. Licence No.: SCXK (Su) 2019-0009, Animal Qualification Certificate No.: 202102418.
After arrival, animals were required to be kept in the experimental environment for 7 days before starting the experiment. The experimental animals were kept in intelligent independent ventilation cages (IVC) with constant temperature and humidity. The temperature was maintained at 20-26° C. and the humidity was maintained at 40-70%. Under a light-dark cycle of 10 hours light/14 hours dark, the experimental animals were allowed to free access to food and water. The animals were labeled using ear tag.
Establishment of subcutaneous tumor model of Hep3B cell: 0.2 mL of a cell suspension containing 3.5×10^6 Hep3B cells was inoculated subcutaneously on the right side of the back of female BALB/c nude mice aged over 6 weeks to establish a transplant tumor. The diameter of tumor was measured with a vernier caliper, and tumor volume was calculated using the following formula: tumor volume=0.5×a×b^2, where a and b represented the long and short diameter of the tumor, respectively. The tumor-bearing mice were randomly divided into 9 groups and administered according to the experimental design when the average tumor volume was at a range of 200-250 mm^3. Mice in each treatment group and solvent control group were subjected to orally intragastric administration for 10 days. The tumor volume of mice was measured twice weekly, and the body weight was weighed daily. The curative effect was assessed based on the relative tumor growth inhibition (TGI) rate (%), and safety was evaluated according to the change of body weight and mortality of animals.

[3] = tested on: hepatocellular carcinoma cells Hep3B; details: in vitro, read-out: IC50 value, inhibitory activity against Hep3B; cited from earlier work
[4] = Pharmacokinetics of different salt forms (ICR mice); assay type: in vivo; details: 75 mg·kg^−1 single gavage, fasted, normal saline, plasma
Description: After vortex oscillation, ultrasonication was carried out. If necessary, shearing and emulsification or grinding could be carried out until well mixed, to obtain an administration formulation with a concentration of 7.5 mg· mL^−1.
as §1
as §2, with “of the ICR mice experiment is” for “of the animal experiment is”, “in Table 5. On the” for “in Table 2. On the”, “experiment, all ICR mice were fasted” for “experiment, all SD rats were fasted”, “for each mouse was calculated” for “for each rat was calculated”, “corresponding table. ICR mice were allowed” for “corresponding table. SD rats were allowed”
Before and 0.25, 0.5, 1, 2, 4, 8, 10, 12 and 24 hours after administration, 0.15 mL blood was collected from fundus venous plexus and placed into anticoagulant tubes containing EDTA-K2.
All whole blood samples were subjected to centrifugation for 10 minutes (5500 rpm), and then the plasma was separated and stored in a refrigerator at −30 to −10° C.

[5] = day 11 after administration, gavage 10 days, 50 mg/kg twice a day (based on formula (I)), sorafenib 30 mg/kg once a day
[6] = day 11 after administration, gavage 10 days, 50 mg/kg twice a day (based on formula (I)), sorafenib 30 mg/kg once a day, listed as sorafenib

SMILES | AUC0-t [1] [ng·h/mL] | Cmax [1] [ng/mL] | Tmax [1] [h] | anti-tumor activity (in words) [2] | tumor volume (x ± S) [2, 5] | T1/2 [1] [h] | other results
C=CC(=O)Nc1cc(N2CCN(CC)C3(CC3)C2)ccc1Nc1cc(N(C)C(=O)Nc2c(Cl)c(OC)cc(OC)c2Cl)ncn1 [Free base, N-(2-((6-(3-(2,6-dichloro-3,5-dimethoxyphenyl)-1-methylureido)pyrimidin-4-yl)amino)-5-(4-ethyl-4,7-diazaspiro[2.5]octane-7-yl)phenyl) acrylamide] | 194.55 | 52.74 | 4.00 | significant anti-tumor activity | – | – | half-life ([1]; SD, rat, po, 20 mg/kg): 2.15 h; tumor volume (x ± S) ([2]; day 11 after administration, gavage 10 days, 50 mg/kg twice a day (based on formula (I)), sorafenib 30 mg/kg once a day, listed as compound as represented by formula): 314 ± 72 mm^3; tumor volume (x ± S) ([2]; day 11 after administration, gavage 10 days, 50 mg/kg twice a day (based on formula (I)), sorafenib 30 mg/kg once a day, listed as compound as represented by formula (I)): 314 mm^3; IC50 [3]: 19 nM
CNC(=O)c1cc(Oc2ccc(NC(=O)Nc3ccc(Cl)c(C(F)(F)F)c3)cc2)ccn1 [Sorafenib, reference compound] | – | – | – | – | 1238 ± 199 mm^3 | – | T/C (%) relative tumor proliferation rate [2, 5]: 57.10%; TGI (%) relative tumor growth inhibition [2, 5]: 42.90%; relative tumor volume (x ± S) [2, 5]: 5.50 ± 0.22; TGI (%) relative tumor growth inhibition [2, 6]: 42.9%; tumor volume (x ± S) [2, 6]: 1238 mm^3
C=CC(=O)Nc1cc(N2CCN(CC)C3(CC3)C2)ccc1Nc1cc(N(C)C(=O)Nc2c(Cl)c(OC)cc(OC)c2Cl)ncn1 [mesylate salt] | 357.27 | 99.39 | 0.42 | significant anti-tumor activity | 93 mm^3 and 93 ± 32 mm^3 | 3.01 | AUC0-t [4]: 8660 ng·h/mL; Cmax [4]: 3740 ng/mL; T1/2 [4]: 1.78 h; Tmax [4]: 0.250 h
C=CC(=O)Nc1cc(N2CCN(CC)C3(CC3)C2)ccc1Nc1cc(N(C)C(=O)Nc2c(Cl)c(OC)cc(OC)c2Cl)ncn1 [ethanesulfonate salt] | 410.81 | 141.81 | 1.50 | significant anti-tumor activity | 121 mm^3 and 121 ± 17 mm^3 | 2.37 | AUC0-t ([4]; ICR, mouse, po, 75 mg/kg, read-out: AUC0-t): 9660 ng·h/mL; Cmax ([4]; ICR, mouse, po, 75 mg/kg, read-out: Cmax): 4110 ng/mL; Tmax ([4]; ICR, mouse, po, 75 mg/kg, read-out: Tmax): 0.5 h
